According to article PMC9172056 (Journal of medicinal chemistry, 2022):

Key:
SARS-CoV-2 3CL^pro = SARS-CoV-2 3CL^pro (Severe acute respiratory syndrome coronavirus 2, UniProt P0DTD1); assay: biochemical; assay type: biochemical
MERS-CoV 3CL^pro = MERS-CoV 3CL^pro (Middle East respiratory syndrome-related coronavirus, UniProt K9N7C7); assay: biochemical
in vitro = details: cat

Sequence of MERS-CoV 3CL^pro (K9N7C7 3248-3553 limits assumed): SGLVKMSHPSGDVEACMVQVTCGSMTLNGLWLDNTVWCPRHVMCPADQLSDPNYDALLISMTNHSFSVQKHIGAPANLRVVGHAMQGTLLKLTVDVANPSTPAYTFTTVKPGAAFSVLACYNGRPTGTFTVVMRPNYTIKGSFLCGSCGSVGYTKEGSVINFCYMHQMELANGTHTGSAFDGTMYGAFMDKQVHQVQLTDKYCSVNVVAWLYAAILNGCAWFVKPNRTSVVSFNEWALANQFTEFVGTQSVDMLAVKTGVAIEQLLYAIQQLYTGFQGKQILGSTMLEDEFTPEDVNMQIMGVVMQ

Row | Structure (SMILES) | IC50 (SARS-CoV-2 3CL^pro) | IC50 (MERS-CoV 3CL^pro) | CC50 (in vitro) | fold lower IC50 than compound 1b (SARS-CoV-2 3CL^pro)
1 | [2H]C([2H])(OC(=O)N[C@@H](CC(C)C)C(=O)N[C@@H](C[C@H]1CCNC1=O)C(O)S(=O)(=O)[O-])C1CN(C(=O)OC(C)(C)C)C1.[Na+] (stereo partly drawn) [Compound 18c, Sodium (2S)-2-((S)-2-((((1-(tert-butoxycarbonyl)azetidin-3-yl)methoxy-d2)carbonyl)amino)-4-methylpentanamido)-1-hydroxy-3-((R)-2-oxopyrrolidin-3-yl)propane-1-sulfonate] | 0.34 ± 0.01 µM | 0.37 ± 0.06 µM | > 100 µM | 
2 | CC(C)C[C@H](NC(=O)OC1(C)CN(C(=O)OC(C)(C)C)C1)C(=O)N[C@@H](C[C@H]1CCNC1=O)C(O)S(=O)(=O)O (stereo partly drawn) [Compound 13c, Sodium (2S)-2-((S)-2-((((1-(tert-butoxycarbonyl)-3-methylazetidin-3-yl)oxy)carbonyl)amino)-4-methylpentanamido)-1-hydroxy-3-((R)-2-oxopyrrolidin-3-yl)propane-1-sulfonate] | 2.5 ± 0.57 µM | 4.3 ± 0.28 µM | > 100 µM | 
3 | CC(C)C[C@H](NC(=O)OC1CC2(C1)CN(C(=O)Cc1ccccc1)C2)C(=O)N[C@H](C=O)C[C@H]1CCNC1=O [Compound 3b, 2-(2-Phenylacetyl)-2-azaspiro[3.3]heptan-6-yl ((S)-4-methyl-1-oxo-1-(((S)-1-oxo-3-((R)-2-oxopyrrolidin-3-yl)propan-2-yl)amino)pentan-2-yl)carbamate] |  |  | > 100 µM | ~13 fold
4 | CC(C)C[C@H](NC(=O)OC1CC2(CCN(C#N)CC2)C1)C(=O)N[C@H](C=O)C[C@H]1CCNC1=O [Compound 11b, 7-Cyano-7-azaspiro[3.5]nonan-2-yl ((S)-4-methyl-1-oxo-1-(((S)-1-oxo-3-((R)-2-oxopyrrolidin-3-yl)propan-2-yl)amino)pentan-2-yl)carbamate] |  |  | > 100 µM | 
5 | CC(C)C[C@H](NC(=O)OC1CC2(CCN(C(=O)Cc3ccccc3)CC2)C1)C(=O)N[C@H](C=O)C[C@H]1CCNC1=O [Compound 9b, 7-(2-Phenylacetyl)-7-azaspiro[3.5]nonan-2-yl ((S)-4-methyl-1-oxo-1-(((S)-1-oxo-3-((R)-2-oxopyrrolidin-3-yl)propan-2-yl)amino)pentan-2-yl)carbamate] |  |  | > 100 µM | 
6 | CC(C)C[C@H](NC(=O)OC1CC2(CCN(C(=O)Cc3ccccc3)CC2)C1)C(=O)N[C@@H](C[C@H]1CCNC1=O)C(O)S(=O)(=O)O (stereo partly drawn) [Compound 9c, Sodium (2S)-1-hydroxy-2-((S)-4-methyl-2-((((7-(2-phenylacetyl)-7-azaspiro[3.5]nonan-2-yl)oxy)carbonyl)amino)pentanamido)-3-((R)-2-oxopyrrolidin-3-yl)propane-1-sulfonate] | 0.29 ± 0.06 µM | 0.61 ± 0.13 µM | > 100 µM | 
7 | CC(C)C[C@H](NC(=O)OCC1CN(C(=O)C2CC3CCC2C3)C1)C(=O)N[C@H](C=O)C[C@H]1CCNC1=O (stereo partly drawn) [Compound 16b, (1-(Bicyclo[2.2.1]heptane-2-carbonyl)azetidin-3-yl)methyl ((S)-4-methyl-1-oxo-1-(((S)-1-oxo-3-((R)-2-oxopyrrolidin-3-yl)propan-2-yl)amino)pentan-2-yl)carbamate] |  |  | > 100 µM | 
8 | CC(C)C[C@H](NC(=O)OC1CN(C(=O)OC(C)(C)C)C1)C(=O)N[C@@H](C[C@H]1CCNC1=O)C(O)S(=O)(=O)O (stereo partly drawn) [Compound 12c, Sodium (2S)-2-((S)-2-((((1-(tert-butoxycarbonyl)azetidin-3-yl)oxy)carbonyl)amino)-4-methylpentanamido)-1-hydroxy-3-((R)-2-oxopyrrolidin-3-yl)propane-1-sulfonate] | 3.05 ± 0.35 µM | 2.55 ± 0.92 µM | > 100 µM | 
9 | CC(C)C[C@H](NC(=O)OC1CC2(CCN(S(C)(=O)=O)CC2)C1)C(=O)N[C@H](C=O)C[C@H]1CCNC1=O [Compound 10b, 7-(Methylsulfonyl)-7-azaspiro[3.5]nonan-2-yl ((S)-4-methyl-1-oxo-1-(((S)-1-oxo-3-((R)-2-oxopyrrolidin-3-yl)propan-2-yl)amino)pentan-2-yl)carbamate] |  |  | > 100 µM | 
10 | CC(C)C[C@H](NC(=O)OCC1CN(C(=O)C2CC3CCC2C3)C1)C(=O)N[C@@H](C[C@H]1CCNC1=O)C(O)S(=O)(=O)O (stereo partly drawn) [Compound 16c, Sodium (2S)-2-((2S)-2-((((1-(bicyclo[2.2.1]heptane-2-carbonyl)azetidin-3-yl)methoxy)carbonyl)amino)-4-methylpentanamido)-1-hydroxy-3-((R)-2-oxopyrrolidin-3-yl)propane-1-sulfonate] | 0.49 ± 0.02 µM | 0.17 ± 0.03 µM | > 100 µM | 
11 | CC(C)C[C@H](NC(=O)OC1CC2(C1)CN(C(=O)C(C)C)C2)C(=O)N[C@H](C=O)C[C@H]1CCNC1=O [Compound 2b, 2-Isobutyryl-2-azaspiro[3.3]heptan-6-yl ((S)-4-methyl-1-oxo-1-(((S)-1-oxo-3-((R)-2-oxopyrrolidin-3-yl)propan-2-yl)amino)pentan-2-yl)carbamate] |  |  | > 100 µM | 
12 | CC(C)C[C@H](NC(=O)OC1CC2(CCN(S(C)(=O)=O)CC2)C1)C(=O)N[C@@H](C[C@H]1CCNC1=O)C(O)S(=O)(=O)O (stereo partly drawn) [Compound 10c, Sodium (2S)-1-hydroxy-2-((S)-4-methyl-2-((((7-(methylsulfonyl)-7-azaspiro[3.5]nonan-2-yl)oxy)carbonyl)amino)pentanamido)-3-((R)-2-oxopyrrolidin-3-yl)propane-1-sulfonate] | 0.24 ± 0.03 µM | 0.33 ± 0.04 µM | > 100 µM | 
13 | [2H]C([2H])(OC(=O)N[C@@H](CC(C)C)C(=O)N[C@H](C=O)C[C@H]1CCNC1=O)C1CN(C(=O)OC(C)(C)C)C1 [Compound 18b, tert-Butyl 3-(((((S)-4-methyl-1-oxo-1-(((S)-1-oxo-3-((R)-2-oxopyrrolidin-3-yl)propan-2-yl)amino)pentan-2-yl)carbamoyl)oxy)methyl-d2)azetidine-1-carboxylate] |  |  | > 100 µM | 
14 | CC(C)C[C@H](NC(=O)OC1CC2(C1)CN(C(=O)Cc1ccccc1)C2)C(=O)N[C@@H](C[C@H]1CCNC1=O)C(O)S(=O)(=O)O (stereo partly drawn) [Compound 3c, Sodium (2S)-1-hydroxy-2-((S)-4-methyl-2-((((2-(2-phenylacetyl)-2-azaspiro[3.3]heptan-6-yl)oxy)carbonyl)amino)pentanamido)-3-((R)-2-oxopyrrolidin-3-yl)propane-1-sulfonate] | 0.26 ± 0.05 µM | 0.13 ± 0.03 µM | > 100 µM | 
15 | CC(C)C[C@H](NC(=O)OC1CC2(C1)CN(C(=O)OC(C)(C)C)C2)C(=O)N[C@H](C=O)C[C@H]1CCNC1=O [Compound 1b, tert-Butyl 6-((((S)-4-methyl-1-oxo-1-(((S)-1-oxo-3-((R)-2-oxopyrrolidin-3-yl)propan-2-yl)amino)pentan-2-yl)carbamoyl)oxy)-2-azaspiro[3.3]heptane-2-carboxylate] |  |  | > 100 µM | 
16 | CC(C)C[C@H](NC(=O)OC1(C)CN(C(=O)OC(C)(C)C)C1)C(=O)N[C@H](C=O)C[C@H]1CCNC1=O [Compound 13b, tert-Butyl 3-methyl-3-((((S)-4-methyl-1-oxo-1-(((S)-1-oxo-3-((R)-2-oxopyrrolidin-3-yl)propan-2-yl)amino)pentan-2-yl)carbamoyl)oxy)azetidine-1-carboxylate] |  |  | > 100 µM | 
17 | CC(C)C[C@H](NC(=O)OC1CC2(CCN(C(=O)C(C)C)CC2)C1)C(=O)N[C@H](C=O)C[C@H]1CCNC1=O [Compound 8b, 7-Isobutyryl-7-azaspiro[3.5]nonan-2-yl ((S)-4-methyl-1-oxo-1-(((S)-1-oxo-3-((R)-2-oxopyrrolidin-3-yl)propan-2-yl)amino)pentan-2-yl)carbamate] |  |  | > 100 µM | 
18 | CC(C)C[C@H](NC(=O)OC1CN(C(=O)OC(C)(C)C)C1)C(=O)N[C@H](C=O)C[C@H]1CCNC1=O [Compound 12b, tert-Butyl 3-((((S)-4-methyl-1-oxo-1-(((S)-1-oxo-3-((R)-2-oxopyrrolidin-3-yl)propan-2-yl)amino)pentan-2-yl)carbamoyl)oxy)azetidine-1-carboxylate] |  |  | > 100 µM | 
19 | CC(C)C[C@H](NC(=O)OC1CC2(C1)CN(S(C)(=O)=O)C2)C(=O)N[C@H](C=O)C[C@H]1CCNC1=O [Compound 4b, 2-(Methylsulfonyl)-2-azaspiro[3.3]heptan-6-yl ((S)-4-methyl-1-oxo-1-(((S)-1-oxo-3-((R)-2-oxopyrrolidin-3-yl)propan-2-yl)amino)pentan-2-yl)carbamate] |  |  | > 100 µM | 
20 | CC(C)C[C@H](NC(=O)OC1CC2(CCN(C(=O)OC(C)(C)C)C2)C1)C(=O)N[C@H](C=O)C[C@H]1CCNC1=O (stereo partly drawn) [Compound 5b, tert-Butyl 2-((((S)-4-methyl-1-oxo-1-(((S)-1-oxo-3-((R)-2-oxopyrrolidin-3-yl)propan-2-yl)amino)pentan-2-yl)carbamoyl)oxy)-6-azaspiro[3.4]octane-6-carboxylate] |  | 0.7 ± 0.14 µM | > 100 µM | 
21 | CC(C)C[C@H](NC(=O)OCC1CN(C(=O)Cc2ccccc2)C1)C(=O)N[C@H](C=O)C[C@H]1CCNC1=O [Compound 15b, (1-(2-Phenylacetyl)azetidin-3-yl)methyl ((S)-4-methyl-1-oxo-1-(((S)-1-oxo-3-((R)-2-oxopyrrolidin-3-yl)propan-2-yl)amino)pentan-2-yl)carbamate] |  |  | > 100 µM | 
22 | CC(C)C[C@H](NC(=O)OCC1CN(S(C)(=O)=O)C1)C(=O)N[C@H](C=O)C[C@H]1CCNC1=O [Compound 17b, (1-(Methylsulfonyl)azetidin-3-yl)methyl ((S)-4-methyl-1-oxo-1-(((S)-1-oxo-3-((R)-2-oxopyrrolidin-3-yl)propan-2-yl)amino)pentan-2-yl)carbamate] |  |  | > 100 µM | 
23 | CC(C)C[C@H](NC(=O)OC1CCC2(C1)CN(C(=O)OC(C)(C)C)C2)C(=O)N[C@H](C=O)C[C@H]1CCNC1=O (stereo partly drawn) [Compound 6b, tert-Butyl 6-((((S)-4-methyl-1-oxo-1-(((S)-1-oxo-3-((R)-2-oxopyrrolidin-3-yl)propan-2-yl)amino)pentan-2-yl)carbamoyl)oxy)-2-azaspiro[3.4]octane-2-carboxylate] |  |  | > 100 µM | 
